Assay results published in patent US20120329731A1 (priority 2006, published 2012).
Read-outs that look alike come from different tables or passages of the source.

What was measured:
cyanide poisoning = system: cyanide poisoning; parameters: species or system mice; details: mouse, in vivo
righting reflex = details: mouse, in vivo, ip

Row | Compound | % S (percent survivors) (cyanide poisoning) [%] | P.I. (protective index) (cyanide poisoning) | Screen Righting time (Ave ± SE) (cyanide poisoning) [min] | % S (percent survivors) (cyanide poisoning; po) [%] | Screen Righting time (Ave ± SE) (righting reflex) [s] | P.I. (protective index: recovery time CN-treated / recovery time PD-treated) (cyanide poisoning) | Protective Indices compared with the combination of nitrite and thiosulfate (cyanide poisoning; ip) | antidotal activity when administered by the oral route (cyanide poisoning; po)
1 | O.O.O.O.O=C(O)C1(O)CSC(O)(C(=O)O)CS1.[Na].[Na] (stereo not shown) [13 (X = Na), Disodium 2,5-dihydroxy-1,4-dithiane-2,5-dicarboxylic acid tetrahydrate] | 100 | 4.0 | 17.0 ± 3.3 | 100 | 14.0 ± 2.3 | – | – | –
2 | N[C@@H](CCC(=O)N[C@@H](CSSC[C@H](N)C(=O)O)C(=O)NCC(=O)O)C(=O)O [CySSG, reference compound] | 100 | 2.5 | 27.7 ± 2.7 | 100 | 8.8 ± 2.2 | – | – | –
3 | C/C1=C2/[N-][C@H]([C@H](CC(N)=O)[C@@]2(C)CCC(=O)NC[C@@H](C)OP(=O)([O-])O[C@H]2[C@@H](O)[C@@H](n3cnc4cc(C)c(C)cc43)O[C@@H]2CO)[C@]2(C)N=C(/C(C)=C3N=C(/C=C4N=C1[C@@H](CCC(N)=O)C\4(C)C)[C@@H](CCC(N)=O)[C@]\3(C)CC(N)=O)[C@@H](CCC(N)=O)[C@]2(C)CC(N)=O.[Co+3].[OH-] [H, Hydroxocobalamin, reference compound] | 100 | – | – | – | 7.1 ± 0.6 | 5.2 | – | –
4 | CCOC(=O)C1(O)CSC(O)(C(=O)OCC)CS1 (stereo not shown) [PD 2, 2,5-Dihydroxy-2,5-dicarbethoxy-1,4-dithiane] | 100 | – | – | 100 | 21.2 ± 1.2 | 7.6 | generally superior | retain their antidotal activity
